Assay results from patent publication US6461997B1, “Triazole sulfones having herbicidal activity” (Monsanto Technology LLC, priority 1999, dated 2002).

Assays:
[1] = test system: wheat (TRZAW); assay: Selectivity test, PPI, cool season crop; format: in vivo, Triticum aestivum; conditions: PPI application
Procedure: (§1) A pre-prepared topsoil mixture (described above) was placed in a pot and compacted to a depth of 1.0 to 1.25 cm from the top of the pot. Seeds of each of several monocotyledonous and dicotyledonous annual plant species were placed on top of the soil. A sufficient quantity of soil to cover the seeds and level fill the pot was weighed into an open container. A known amount of the test compound was dissolved or suspended in an organic solvent and applied by spraying to this cover soil. The cover soil was thoroughly mixed to distribute the test compound throughout the cover soil, and was then applied as a cover layer over the seeds. Untreated soil was used as a cover layer for control pots. After treatment the plants were placed in a greenhouse where they received 0.64 cm of overhead irrigation. All subsequent watering consisted of a light overhead mist and/or subirrigation as needed for germination and growth. Tables 9 and 10 below relate to warm season plant species which were placed after pre-emergence treatment in a greenhouse with a 30/21° C. day/night temperature regime. Tables 11 and 12 below relates to cool season plant species placed after pre-emergence treatment in a greenhouse or growth chamber with an 18/13° C. day/night temperature regime. Only the compounds of Examples 1, 6, 8, 11, 13 and 15-20 were included in PPI tests.
(§2) Approximately 14 days after planting and treating, the plants were observed and herbicidal efficacy recorded as percent inhibition by comparison with untreated plants.
Additional pre-emergence and PPI tests were conducted by the procedures described above, on warm and cool season weed species in the presence of crop species, to assess herbicidal selectivity. Crop species included in warm season tests were corn (Zea mays, ZEAMX), rice (Oryza sativa, ORYSA) and soybean (Glycine max, GLYMX). Crop species included in cool season tests were wheat (Triticum aestivum, TRZAW), barley (Hordeunm vulgare, HORVX) and oilseed rape (Brassica napus, BRSNS).
Tables 15 and 16 relate to pre-emergence and PPI tests respectively on warm season species. Table 17 relates to pre-emergence tests on cool season species.

[2] = test system: AGSST (creeping bentgrass); assay: Pre-emergence herbicidal activity, cool season; format: in vivo, Agrostis stolonifera; conditions: GR80 = lowest tested rate (300, 100, 30, 10 g/ha) with 80% or greater inhibition; approx. 14 days after treating; 18/13° C.
In short: (§3)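 Seeds sown in sterilised fertilised topsoil received surface-applied compound in 50:50 acetone/water, typically at 300, 100, 30 and 10 g/ha, then greenhouse-grown at 30/21° C (warm-season species) or 18/13° C (cool-season species). Percent inhibition versus untreated plants was scored at about 14 days, giving GR80; an asterisk marks activity short of 80% at the top rate.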

[3] = test system: PANMI (wild proso millet); assay: Pre-plant incorporated (PPI) herbicidal activity, warm season; format: in vivo, Panicum miliaceum; conditions: PPI application
Procedure: (§4) In another set of tests, the pre-plant incorporated (PPI) activity of compounds of this invention was evaluated on the same species as for the pre-emergence tests described above. In the PPI tests the following procedure, designed to simulate PPI application, was used.
as §1, §2

[4] = test system: LOLMG (annual ryegrass); assay: Pre-plant incorporated (PPI) herbicidal activity, cool season; format: in vivo, Lolium multiflorum; conditions: weed, PPI application
Procedure: as §4, §1, §2

[5] = test system: LAMPU (purple deadnettle); assay: Pre-emergence herbicidal activity, cool season; format: in vivo, Lamium purpureum; conditions: lowest tested rate with 80% or greater inhibition; rates 300, 100, 30, 10 g/ha; about 14 days
In short: as §3

[6] = test system: SINAR (wild mustard); assay: Pre-emergence herbicidal activity, cool season; format: in vivo, Sinapis arvensis; conditions: lowest tested rate with 80% or greater inhibition; rates 300, 100, 30, 10 g/ha; about 14 days
In short: as §3

[7] = test system: SETVI (green foxtail); assay: Pre-emergence herbicidal activity, cool season; format: in vivo, Setaria viridis; conditions: GR80 = lowest tested rate (300, 100, 30, 10 g/ha) with 80% or greater inhibition; approx. 14 days after treating; 18/13° C.
In short: as §3

[8] = test system: CHEAL (common lambsquarters); assay: Pre-plant incorporated (PPI) herbicidal activity, warm season; format: in vivo, Chenopodium album; conditions: PPI application
Procedure: as §4, §1, §2

[9] = test system: AMARE (redroot pigweed); assay: as above; format: in vivo, Amaranthus retroflexus; conditions: PPI application
Procedure: as §4, §1, §2

[10] = test system: XANST (cocklebur); assay: as above; format: in vivo, Xanthium strumarium; conditions: PPI application
Procedure: as §4, §1, §2

[11] = test system: AEGCY (jointed goatgrass); assay: Pre-plant incorporated (PPI) herbicidal activity, cool season; format: in vivo, Aegilops cylindrica; conditions: weed, PPI application
Procedure: as §4, §1, §2

Which “Percent inhibition TRZAW” value ([1]; 30 g/ha) does the source give for CCN(CC)C(=O)n1cnc(S(=O)(=O)C(F)(F)C(F)(F)Br)n1 [Example 4] here?
The value was 0%.

And the “Percent inhibition TRZAW” value ([1]; 100 g/ha)?
Its value is 10%.

And the “Percent inhibition TRZAW” value ([1]; 300 g/ha)?
The value was 30%.

And the “Percent inhibition TRZAW” value ([1]; 900 g/ha)?
The value was 45%.

What about the “Pre-emergence activity (GR80) AGSST” value [2] of the same compound?
The value was 10 g/ha.

And the “Percent inhibition PANMI” value ([3]; 30 g/ha)?
Its value is 0%.

And the “Percent inhibition PANMI” value ([3]; 100 g/ha)?
Its value is 100%.

And the “Percent inhibition PANMI” value ([3]; 300 g/ha)?
The value was 100%.

What about the “Percent inhibition PANMI” value ([3]; 900 g/ha) of the same compound?
The value was 100%.

And the “Percent inhibition LOLMG” value ([4]; 30 g/ha)?
The value was 80%.

And the “Percent inhibition LOLMG” value ([4]; 100 g/ha)?
Its value is 100%.

What about the “Percent inhibition LOLMG” value ([4]; 300 g/ha) of the same compound?
Its value is 100%.

What about the “Percent inhibition LOLMG” value ([4]; 900 g/ha) of the same compound?
Its value is 100%.

What about the “Pre-emergence activity GR80, LAMPU” value [5] of the same compound?
Its value is 30 g/ha.

And the “Pre-emergence activity GR80, SINAR” value [6]?
Its value is 30 g/ha.

What about the “Pre-emergence activity (GR80) SETVI” value [7] of the same compound?
The value was 30 g/ha.

What about the “Percent inhibition CHEAL” value ([8]; 30 g/ha) of the same compound?
The value was 60%.

What about the “Percent inhibition CHEAL” value ([8]; 100 g/ha) of the same compound?
The value was 100%.

What about the “Percent inhibition CHEAL” value ([8]; 300 g/ha) of the same compound?
Its value is 100%.

And the “Percent inhibition CHEAL” value ([8]; 900 g/ha)?
The value was 100%.

And the “Percent inhibition AMARE” value ([9]; 30 g/ha)?
The value was 70%.

What about the “Percent inhibition AMARE” value ([9]; 100 g/ha) of the same compound?
Its value is 100%.

And the “Percent inhibition AMARE” value ([9]; 300 g/ha)?
Its value is 100%.

What about the “Percent inhibition AMARE” value ([9]; 900 g/ha) of the same compound?
Its value is 100%.

What about the “Percent inhibition XANST” value ([10]; 30 g/ha) of the same compound?
The value was 0%.

And the “Percent inhibition XANST” value ([10]; 100 g/ha)?
Its value is 0%.

What about the “Percent inhibition XANST” value ([10]; 300 g/ha) of the same compound?
The value was 0%.

What about the “Percent inhibition XANST” value ([10]; 900 g/ha) of the same compound?
Its value is 40%.

And the “Percent inhibition AEGCY” value ([11]; 30 g/ha)?
Its value is 0%.

And the “Percent inhibition AEGCY” value ([11]; 100 g/ha)?
Its value is 30%.

And the “Percent inhibition AEGCY” value ([11]; 300 g/ha)?
The value was 50%.

And the “Percent inhibition AEGCY” value ([11]; 900 g/ha)?
Its value is 30%.
